{"source": "patent US20140335172A1", "about": "“OPHTHALMOLOGICAL RINSING AGENT AND METHODS THEREFOF” (priority 2013, published 2014)", "key": {"[1]": {"conditions": "cited from earlier work; for Specific Gravity, at 25° C.: silicone oil grade given by kinematic viscosity, cSt"}, "[2]": {"conditions": "cited from earlier work"}, "[3]": {"conditions": "cited from earlier work", "remark": "listed apart in the source"}, "[4]": {"conditions": "cited from earlier work; for Kinematic Viscosity (Sticky**): Table 2"}, "[5]": {"conditions": "cited from earlier work", "remark": "listed apart in the source"}, "[6]": {"assay": "Relative efficacy ranking of oil solvents", "conditions": "relative rank, 1 = most efficient"}, "[7]": {"assay": "Relative volatility ranking of oil solvents", "assay_type": "physicochemical", "conditions": "relative rank, 1 = most volatile"}, "[8]": {"assay": "Relative cell toxicity ranking of oil solvents", "assay_type": "cell-based", "set-up": "key: 1 = most efficient/toxic/proliferative/volatile", "conditions": "relative rank, 1 = most toxic"}, "[9]": {"assay": "Relative cell proliferation ranking of oil solvents", "assay_type": "cell-based", "conditions": "relative rank, 1 = most proliferative"}, "RGC-5": {"test_system": "RGC-5", "conditions": "RGC-5, 30 minutes, n=3", "experimental": "In the study, CellTiter 96® AQueous non-radioactive cell proliferation assay (MTS) and Cytotoxicity Detection Kit (LDH assay) were used to test for the cell viability and cell death of the RGC-5 and rMC-1 cells after incubation with the rinsing agent (FIG. 17). The major component of the rinsing agent is octamethyltrisiloxane (1.0 cSt Silicone Oil [SO]) with hydrophobic surfactant DC749 (Dow Corning). Rinsing agents with different concentration of DC749 (0%, 5%, 10% in vol.) were included. The incubation time was designed as 1 hr because the proposed use of the rinsing agent would not be longer than 15 mins in-vivo and therefore a 1 hr study would be more than sufficient in deciding the effect of the proposed rinsing agent on the cells in the eye cavity. Hank's Balanced salt solution (HBSS) was used as the experimental control. Two liquids, perfluorodecalin (PFD) and F6H8, were also included in this study. PFD is a widely accepted short-term used intraoperative adjunct for flattening the folded retina during retinal surgery. F6H8 is a key component of Heavy Silicone Oil (HSO), which has been used as a long-term intraocular tamponade.\nIn a study similar to 6.4 above, the cell viability and the percentage cell death of RGC-5 were investigated in a 30-minute experiment."}, "rMC-1 cells": {"test_system": "rMC-1 cells", "assay": "MTS cell viability, rMC-1, 1 hr incubation", "assay_type": "cell-based", "conditions": "rMC-1 Müller cells, n=3", "excerpt": "The innermost cell layer of the retina is called the retinal ganglion cell layer. It consists mainly of retinal ganglion cells, with some Müller cells and also some blood capillaries. This cell layer is located closest to the vitreous anatomically and thus is almost in direct contact with the rinsing agent in this study. Therefore, a retinal ganglion cell line (RGC-5) and a rat Müller cell line were used in this in-vitro cell culture study to evaluate the biocompatibility of the rinsing agent in accordance with at least one embodiment of this application."}, "[10]": {"conditions": "at 25 ° C., Table 4 surfactants"}, "[11]": {"conditions": "silicone oil grade given by kinematic viscosity, cSt"}}, "note": "Where two headings read alike, the source gives them in different places."}
{"compound": "C[Si]1(C)O[Si](C)(C)O[Si](C)(C)O[Si](C)(C)O1", "note": "[Octamethylcyclotetrasiloxane]", "values": [{"measurement": "Density (g/cm^3) at 25° C.", "setting": "[1]; [10]", "value": 0.95, "unit": "g/mL"}, {"measurement": "Henry's Law Constant, Pa m^3/mol at 25° C.", "setting": "[2]", "value": "1,214,000 Pa m^3/mol"}, {"measurement": "Vapor Pressure, Pa at 25° C.", "setting": "[3]", "value": 132, "unit": "Pa"}]}
{"compound": "CCCCCCC(F)(F)C(F)(F)C(F)(F)C(F)(F)C(F)(F)C(F)(F)F", "note": "[F6H6]", "values": [{"measurement": "Density (g/cm^3) at 25° C.", "setting": "[1]; at 25° C., Table 3", "value": 1.386, "unit": "g/mL"}, {"measurement": "Dynamic Viscosity (mPa · s) at 25° C.", "setting": "[4]", "value": 2.38, "unit": "mPa · s"}, {"measurement": "Surface Tension (mN/m)", "setting": "[5]; Table 3", "value": 20.0, "unit": "mN/m"}, {"measurement": "Vapor Pressure (Torr)", "setting": "[3]; 25° C.", "value": "<1 (25° C.) Torr"}]}
{"compound": "O", "note": "[H2O]", "values": [{"measurement": "Density (g/cm^3) at 25° C.", "setting": "[1]; at 25° C., Table 3", "value": 0.970, "unit": "g/mL"}, {"measurement": "Dynamic Viscosity (mPa · s) at 25° C.", "setting": "[4]", "value": 0.89, "unit": "mPa · s"}, {"measurement": "Surface Tension (mN/m)", "setting": "[5]; Table 3", "value": 72, "unit": "mN/m"}, {"measurement": "Vapor Pressure (Torr)", "setting": "[3]; 37° C.", "value": "46.9 (37° C.) Torr"}]}
{"compound": "FC(F)(F)C(F)(F)C(F)(F)C(F)(F)C(F)(F)C(F)(F)C(F)(F)C(F)(F)Br", "note": "[PFOB]", "values": [{"measurement": "Efficacy", "setting": "[6]", "value": 3}, {"measurement": "Volatility", "setting": "[7]", "value": 4}, {"measurement": "Cell toxicity", "setting": "[8]", "value": 1}, {"measurement": "Cell proliferation", "setting": "[9]", "value": 3}, {"measurement": "Density (g/cm^3) at 25° C.", "setting": "[1]; at 25° C., Table 3", "value": 1.930, "unit": "g/mL"}, {"measurement": "Kinematic Viscosity (Sticky**)", "setting": "[4]", "value": 1.93, "unit": "cSt"}, {"measurement": "Dynamic Viscosity (mPa · s) at 25° C.", "setting": "[4]", "value": 1.93, "unit": "mPa · s"}, {"measurement": "Surface Tension (mN/m)", "setting": "[5]; Table 3", "value": 18, "unit": "mN/m"}, {"measurement": "Vapor Pressure (Torr)", "setting": "[3]; 37° C.", "value": "10.5 (37° C.) Torr"}]}
{"compound": "CCCCCCCCCCCCC(F)(F)C(F)(F)C(F)(F)C(F)(F)C(F)(F)C(F)(F)F", "note": "[F6H12]", "values": [{"measurement": "Density (g/cm^3) at 25° C.", "setting": "[1]; at 25° C., Table 3", "value": 1.25, "unit": "g/mL"}, {"measurement": "Dynamic Viscosity (mPa · s) at 25° C.", "setting": "[4]", "value": 6.99, "unit": "mPa · s"}, {"measurement": "Surface Tension (mN/m)", "setting": "[5]; Table 3", "value": 21.1, "unit": "mN/m"}]}
{"compound": "C[Si]1(C)O[Si](C)(C)O[Si](C)(C)O[Si](C)(C)O[Si](C)(C)O1", "note": "[Decamethylcyclopentasiloxane]", "values": [{"measurement": "Density (g/cm^3) at 25° C.", "setting": "[1]; [10]", "value": 0.954, "unit": "g/mL"}, {"measurement": "Henry's Law Constant, Pa m^3/mol at 25° C.", "setting": "[2]", "value": "3,342,000 Pa m^3/mol"}, {"measurement": "Vapor Pressure, Pa at 25° C.", "setting": "[3]", "value": 33.2, "unit": "Pa"}]}
{"compound": "C[Si]1(C)O[Si](C)(C)O[Si](C)(C)O[Si](C)(C)O[Si](C)(C)O[Si](C)(C)O1", "note": "[Dodecamethylcyclobexasiloxane]", "values": [{"measurement": "Density (g/cm^3) at 25° C.", "setting": "[1]; [10]", "value": 0.963, "unit": "g/mL"}, {"measurement": "Henry's Law Constant, Pa m^3/mol at 25° C.", "setting": "[2]", "value": "14,667 Pa m^3/mol"}, {"measurement": "Vapor Pressure, Pa at 25° C.", "setting": "[3]", "value": 4.6, "unit": "Pa"}]}
{"compound": "CCCCCC(F)(F)C(F)(F)C(F)(F)C(F)(F)F", "note": "[F4H5]", "values": [{"measurement": "Efficacy", "setting": "[6]", "value": 2}, {"measurement": "Volatility", "setting": "[7]", "value": 2}, {"measurement": "Density (g/cm^3) at 25° C.", "setting": "[1]; at 25° C., Table 3", "value": 1.284, "unit": "g/mL"}, {"measurement": "Kinematic Viscosity (Sticky**)", "setting": "[4]", "value": 1.05, "unit": "cSt"}, {"measurement": "Dynamic Viscosity (mPa · s) at 25° C.", "setting": "[4]", "value": 1.05, "unit": "mPa · s"}, {"measurement": "Surface Tension (mN/m)", "setting": "[5]; Table 3", "value": 17.43, "unit": "mN/m"}, {"measurement": "Vapor Pressure (Torr)", "setting": "[3]; 37° C.", "value": "25.1 (37° C.) Torr"}]}
{"compound": "C[Si](C)(C)O[Si](C)(C)O[Si](C)(C)C", "note": "[Octamethyltrisiloxane]", "values": [{"measurement": "Density (g/cm^3) at 25° C.", "setting": "[1]; at 25° C., Table 3", "value": 0.818, "unit": "g/mL"}, {"measurement": "Specific Gravity, at 25° C.", "setting": "[1]; at 25° C.", "value": 0.816}, {"measurement": "Dynamic Viscosity (mPa · s) at 25° C.", "setting": "[4]", "value": 1.0, "unit": "mPa · s"}, {"measurement": "Surface Tension (mN/m)", "setting": "[5]; Table 3", "value": 17.4, "unit": "mN/m"}, {"measurement": "Surface Tension (mN/m)", "setting": "[5]; [11]", "value": 17.4, "unit": "mN/m"}, {"measurement": "Vapor Pressure (Torr)", "setting": "[3]; 25° C.", "value": "4 (25° C.) Torr"}]}
{"compound": "C[Si](C)(C)O[Si](C)(C)C", "note": "[Hexamethyldisiloxane]", "values": [{"measurement": "cell viability relative to HBSS, MTS assay", "setting": "RGC-5; listed as 0.65 mPa·s SO", "value": "significant decrease of cell viability"}, {"measurement": "cell viability relative to HBSS, MTS assay", "setting": "RGC-5; listed as LMW-SO 0.65 mPa·s", "value": "reducing the metabolism"}, {"measurement": "Density", "setting": "[1]; 20° C., Table 3", "value": 0.764, "unit": "g/mL"}, {"measurement": "Specific Gravity, at 25° C.", "setting": "[1]; at 25° C.", "value": 0.760}, {"measurement": "Dynamic Viscosity (mPa · s) at 25° C.", "setting": "[4]", "value": 0.65, "unit": "mPa · s"}, {"measurement": "Surface Tension (mN/m)", "setting": "[5]; Table 3", "value": 15.9, "unit": "mN/m"}, {"measurement": "Surface Tension (mN/m)", "setting": "[5]; [11]", "value": 15.9, "unit": "mN/m"}, {"measurement": "Vapor Pressure (Torr)", "setting": "[3]; 37° C.", "value": "42.2 (37° C.) Torr"}]}
{"compound": "CCCCCCCCC(F)(F)C(F)(F)C(F)(F)C(F)(F)C(F)(F)C(F)(F)F", "note": "[F6H8]", "values": [{"measurement": "Efficacy", "setting": "[6]", "value": 3}, {"measurement": "Volatility", "setting": "[7]", "value": 3}, {"measurement": "Cell toxicity", "setting": "[8]", "value": 2}, {"measurement": "Cell proliferation", "setting": "[9]", "value": 2}, {"measurement": "cell viability relative to HBSS, MTS assay", "setting": "rMC-1 cells", "value": "significant decrease in cell viability"}, {"measurement": "Density (g/cm^3) at 25° C.", "setting": "[1]; at 25° C., Table 3", "value": 1.331, "unit": "g/mL"}, {"measurement": "Kinematic Viscosity (Sticky**)", "setting": "[4]", "value": 3.44, "unit": "cSt"}, {"measurement": "Dynamic Viscosity (mPa · s) at 25° C.", "setting": "[4]", "value": 3.44, "unit": "mPa · s"}, {"measurement": "Surface Tension (mN/m)", "setting": "[5]; Table 3", "value": 19.65, "unit": "mN/m"}, {"measurement": "Vapor Pressure (Torr)", "setting": "[3]; 25° C.", "value": "<1 (25° C.) Torr"}]}
